Reference: ChEMBL document CHEMBL3098074, “Synthesis and tumor cell growth inhibitory activity of biotinylated annonaceous acetogenins” (Eur J Med Chem, 2014)

What was measured:
L1210 [1] = test: Selectivity index, ratio of IC50 for mouse L1210 cells to IC50 for mouse 4T1 cells; assay type: functional
P815 [2] = test: Cytotoxicity against mouse P815 cells expressing biotin receptor after 72 hrs by MTT assay; assay type: functional, cell-based; conditions: P815, 72 h
L1210 [3] = test: Cytotoxicity against mouse L1210 cells after 72 hrs by MTT assay; assay type: functional, cell-based; conditions: L1210, 72 h
L1210 [4] = test: Selectivity index, ratio of IC50 for mouse L1210 cells to IC50 for mouse P815 cells; assay type: functional
4T1 [5] = test: Cytotoxicity against mouse 4T1 cells expressing biotin receptor after 72 hrs by MTT assay; assay type: functional, cell-based; conditions: 4T1, 72 h
P815 [6] = test: Ratio of squamocin IC50 to compound IC50 for mouse P815 cells expressing biotin receptor; assay type: functional
4T1 [7] = test: Ratio of squamocin IC50 to compound IC50 for mouse 4T1 cells expressing biotin receptor; assay type: functional

Structure (SMILES) | Ratio IC50 (L1210 [1]) | IC50 (P815 [2]) [nM] | IC50 (L1210 [3]) [nM] | Ratio IC50 (L1210 [4]) | IC50 (4T1 [5]) [nM] | Ratio IC50 (P815 [6]) | Ratio IC50 (4T1 [7])
CCCCCCCCCC[C@H](O)[C@H]1CC[C@H]([C@H]2CC[C@H]([C@@H](CCCCCCCCCC[C@H](CC3=C[C@H](C)OC3=O)OC(=O)CCCCCNC(=O)CCCC[C@@H]3SC[C@@H]4NC(=O)N[C@@H]43)OC(=O)CCCCCNC(=O)CCCC[C@@H]3SC[C@@H]4NC(=O)N[C@@H]43)O2)O1 | 1.92 | > 20000 | 2040 | <0.1 | 1060 |  | 
CCCCCC[C@@H](CCC[C@H](OC(=O)CCCC[C@@H]1SC[C@@H]2NC(=O)N[C@@H]21)[C@H]1CC[C@H]([C@H]2CC[C@H]([C@H](O)CCCCCCCCCCCCC3=C[C@H](C)OC3=O)O2)O1)OC(=O)CCCC[C@@H]1SC[C@@H]2NC(=O)N[C@@H]21 | 19.62 | > 20000 | 5690 | <0.28 | 290 |  | 
CCCCCC[C@@H](CCC[C@H](O)[C@H]1CC[C@H]([C@H]2CC[C@H]([C@@H](CCCCCCCCCCCCC3=C[C@H](C)OC3=O)OC(=O)CCCCCNC(=O)CCCC[C@@H]3SC[C@@H]4NC(=O)N[C@@H]43)O2)O1)OC(=O)CCCCCNC(=O)CCCC[C@@H]1SC[C@@H]2NC(=O)N[C@@H]21 | 22.57 | 750 | 790 | 1.05 | 35 | >26 | >10
CCCCCC[C@@H](CCC[C@H](O)[C@H]1CC[C@H]([C@H]2CC[C@H]([C@H](O)CCCCCCCCCCCCC3=C[C@H](C)OC3=O)O2)O1)OC(=O)CCCCCNC(=O)CCCC[C@@H]1SC[C@@H]2NC(=O)N[C@@H]21 | 0.1 | > 20000 | 680 | <0.034 | 6570 |  | 
CCCCCCCCCC[C@H](OC(=O)CCCC[C@@H]1SC[C@@H]2NC(=O)N[C@@H]21)[C@H]1CC[C@H]([C@H]2CC[C@H]([C@H](O)CCCCCCCCCC[C@@H](O)CC3=C[C@H](C)OC3=O)O2)O1 | 3.47 | > 20000 | 5790 | <0.29 | 1670 |  | 
CCCCCCCCCC[C@@H](O)[C@@H]1CC[C@@H]([C@@H]2CC[C@@H]([C@H](O)CCCCCCCCCC(O)CC3=CC(C)OC3=O)O2)O1 (some centres not stated) [BULLATACIN] | 21.09 | 3480 | 2320 | 0.67 | 110 |  | 
CCCCCCCCCC[C@H](O)[C@H]1CC[C@H]([C@H]2CC[C@H]([C@H](O)CCCCCCCCCC[C@H](CC3=C[C@H](C)OC3=O)OC(=O)CCCCCNC(=O)CCCC[C@@H]3SC[C@@H]4NC(=O)N[C@@H]43)O2)O1 | 39.62 | 880 | 2100 | 2.39 | 53 |  | 
CCCCCC[C@@H](CCC[C@H](O)[C@H]1CC[C@H]([C@H]2CC[C@H]([C@H](O)CCCCCCCCCCCCC3=C[C@H](C)OC3=O)O2)O1)OC(=O)CCCC[C@@H]1SC[C@@H]2NC(=O)N[C@@H]21 | 16.94 | 1340 | 830 | 0.62 | 49 |  | 
CCCCCC[C@H](O)CCC[C@H](OC(=O)CCCCCNC(=O)CCCC[C@@H]1SC[C@@H]2NC(=O)N[C@@H]21)[C@H]1CC[C@H]([C@H]2CC[C@H]([C@@H](CCCCCCCCCCCCC3=C[C@H](C)OC3=O)OC(=O)CCCCCNC(=O)CCCC[C@@H]3SC[C@@H]4NC(=O)N[C@@H]43)O2)O1 | 2.47 | 930 | 840 | 0.9 | 340 |  | 
CCCCCCCCCC[C@H](O)[C@H]1CC[C@H]([C@H]2CC[C@H]([C@H](O)CCCCCCCCCC[C@H](CC3=C[C@H](C)OC3=O)OC(=O)CCCC[C@@H]3SC[C@@H]4NC(=O)N[C@@H]43)O2)O1 | 2.18 | > 20000 | 1420 | <0.071 | 650 |  | 
CCCCCC[C@H](O)CCC[C@H](O)[C@H]1CC[C@H]([C@H]2CC[C@H]([C@@H](CCCCCCCCCCCCC3=C[C@H](C)OC3=O)OC(=O)CCCCCNC(=O)CCCC[C@@H]3SC[C@@H]4NC(=O)N[C@@H]43)O2)O1 | 14.94 | 2410 | 1150 | 0.48 | 77 |  | 
